{"source": "ChEMBL document CHEMBL4311992", "about": "“Discovery of 3-(((9H-purin-6-yl)amino)methyl)-4,6-dimethylpyridin-2(1H)-one derivatives as novel tubulin polymerization inhibitors for treatment of cancer” (Eur J Med Chem, 2019)", "key": {"[1]": {"system": "Casein kinase I isoform gamma-3 (Homo sapiens), Q9Y6M4 [UNDEFINED MUTATION]", "sequence (Q9Y6M4 whole entry, looked up, stated change not applied, the tested form may be a part, canonical isoform)": "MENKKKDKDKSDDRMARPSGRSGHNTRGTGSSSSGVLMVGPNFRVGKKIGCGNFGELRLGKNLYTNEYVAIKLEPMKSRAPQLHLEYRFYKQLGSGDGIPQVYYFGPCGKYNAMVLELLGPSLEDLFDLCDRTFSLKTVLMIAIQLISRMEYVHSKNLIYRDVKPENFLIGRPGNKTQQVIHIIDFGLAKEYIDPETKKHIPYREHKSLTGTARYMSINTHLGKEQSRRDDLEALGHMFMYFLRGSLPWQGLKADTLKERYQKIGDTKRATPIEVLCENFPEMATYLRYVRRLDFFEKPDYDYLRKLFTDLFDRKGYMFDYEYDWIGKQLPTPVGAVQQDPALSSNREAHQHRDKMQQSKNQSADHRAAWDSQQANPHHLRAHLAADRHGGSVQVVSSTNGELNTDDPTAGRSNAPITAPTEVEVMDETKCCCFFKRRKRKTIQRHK", "assay": "Inhibition of recombinant human CK1gamma3 K91E/R174G/E302D mutant (1 to 330 residues) assessed as residual activity at 10 uM using KRRRALS(p)VASLPGL as substrate measured after 40 mins in presence of [gamma33P]ATP by scintillation counting method"}, "SW-620": {"system": "SW-620", "assay": "Induction of apoptosis in human SW620 cells assessed as early apoptotic cells at 25 nM measured after 48 hrs by Annexin V-FITC/propidium iodide staining-based flow cytometry (reference value: 0.773%)", "assay_type": "functional"}, "[2]": {"target": "Myosin light chain kinase 2, skeletal/cardiac muscle (Homo sapiens) (UniProt Q9H1R3)", "assay": "Inhibition of recombinant full-length human MYLK2 assessed as residual activity at 10 uM using KKLNRTLSFAEPG as substrate measured after 40 mins in presence of [gamma33P]ATP by scintillation counting method"}, "[3]": {"target": "Serine/threonine-protein kinase NIM1 (Homo sapiens) (UniProt Q8IY84)", "sequence (Q8IY84 whole entry)": "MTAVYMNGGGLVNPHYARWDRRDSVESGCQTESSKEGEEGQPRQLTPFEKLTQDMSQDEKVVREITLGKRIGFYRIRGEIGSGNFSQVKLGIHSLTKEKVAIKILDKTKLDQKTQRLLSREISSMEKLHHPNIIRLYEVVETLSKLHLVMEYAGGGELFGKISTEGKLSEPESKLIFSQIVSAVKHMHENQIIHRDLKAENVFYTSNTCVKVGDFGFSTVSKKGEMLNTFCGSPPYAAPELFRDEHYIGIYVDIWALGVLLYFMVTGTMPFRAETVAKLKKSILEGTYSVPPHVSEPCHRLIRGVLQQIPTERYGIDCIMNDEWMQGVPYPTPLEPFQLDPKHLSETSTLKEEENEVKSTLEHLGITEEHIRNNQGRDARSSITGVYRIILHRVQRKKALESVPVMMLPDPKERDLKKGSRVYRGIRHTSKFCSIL", "assay": "Inhibition of recombinant full-length human NIM1 assessed as residual activity at 10 uM using KKKVSRSGLYRSPSMPENLNRPR as substrate measured after 40 mins in presence of [gamma33P]ATP by scintillation counting method"}, "[4]": {"target": "Macrophage-stimulating protein receptor (Homo sapiens) (UniProt Q04912)", "assay": "Inhibition of human Ron (983 to end residues) using GGMEDIYFEFMGGKKK as substrate measured after 40 mins in presence of [gamma33P]ATP by scintillation counting method", "parameters": "scale not given: the % may be the effect or the level left"}, "Homo sapiens [5]": {"organism": "Homo sapiens", "assay": "Inhibition of recombinant human DDR1 V833L mutant (492 to end residues) assessed as residual activity at 10 uM using KKKSPGEYVNIEFG as substrate measured after 40 mins in presence of [gamma33P]ATP by scintillation counting method"}, "[6]": {"target": "Tyrosine-protein kinase CSK (Homo sapiens) (UniProt P41240)", "sequence (P41240 2-450 limits assumed)": "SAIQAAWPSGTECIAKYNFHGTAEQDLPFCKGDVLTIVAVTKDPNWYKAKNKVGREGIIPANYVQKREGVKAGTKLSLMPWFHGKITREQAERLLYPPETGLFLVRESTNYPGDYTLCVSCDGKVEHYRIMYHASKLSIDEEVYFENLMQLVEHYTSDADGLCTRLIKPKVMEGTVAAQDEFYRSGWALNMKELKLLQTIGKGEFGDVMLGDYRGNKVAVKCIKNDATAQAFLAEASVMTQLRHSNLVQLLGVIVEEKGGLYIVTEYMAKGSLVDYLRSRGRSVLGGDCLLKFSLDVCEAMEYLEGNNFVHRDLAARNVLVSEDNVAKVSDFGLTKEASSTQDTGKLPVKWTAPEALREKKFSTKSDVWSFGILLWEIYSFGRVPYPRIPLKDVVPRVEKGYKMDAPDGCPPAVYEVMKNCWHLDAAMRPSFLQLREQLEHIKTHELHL", "assay": "Inhibition of full-length recombinant human CSK assessed as residual activity at 10 uM using poly(Glu, Tyr) 4:1 as substrate measured after 40 mins in presence of [gamma33P]ATP by scintillation counting method"}, "Homo sapiens [7]": {"organism": "Homo sapiens", "assay": "Inhibition of recombinant human Flt4 V1128L/H1146R mutant (800 to end residues) assessed as residual activity at 10 uM using GGEEEEYFELVKKKK as substrate measured after 40 mins in presence of [gamma33P]ATP by scintillation counting method"}, "[8]": {"target": "Tyrosine-protein kinase Fyn (Homo sapiens) (UniProt P06241)", "sequence (P06241 2-537 limits assumed)": "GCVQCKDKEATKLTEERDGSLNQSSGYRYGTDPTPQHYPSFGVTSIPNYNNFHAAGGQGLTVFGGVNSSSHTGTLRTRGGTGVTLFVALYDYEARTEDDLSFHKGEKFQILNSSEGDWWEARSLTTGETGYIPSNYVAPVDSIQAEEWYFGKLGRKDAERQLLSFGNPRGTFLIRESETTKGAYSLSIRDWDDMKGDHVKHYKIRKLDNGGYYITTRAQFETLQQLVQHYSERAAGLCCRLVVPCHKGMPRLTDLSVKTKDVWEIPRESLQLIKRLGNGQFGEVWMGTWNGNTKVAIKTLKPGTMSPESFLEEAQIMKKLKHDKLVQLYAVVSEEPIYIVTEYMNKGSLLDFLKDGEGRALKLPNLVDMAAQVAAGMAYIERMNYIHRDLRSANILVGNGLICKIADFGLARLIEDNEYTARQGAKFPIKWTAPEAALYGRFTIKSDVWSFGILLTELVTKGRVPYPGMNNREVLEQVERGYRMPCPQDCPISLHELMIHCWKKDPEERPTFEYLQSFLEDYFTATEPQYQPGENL", "assay": "Inhibition of recombinant full-length human FYN assessed as residual activity at 10 uM using Cdc2 peptide as substrate measured after 40 mins in presence of [gamma33P]ATP by scintillation counting method"}, "[9]": {"target": "Serine/threonine-protein kinase B-raf (Homo sapiens) (UniProt P15056)", "assay": "Inhibition of recombinant human BRAF (416 to end residues) assessed as residual activity at 10 uM using myelin basic protein as substrate measured after 40 mins in presence of [gamma33P]ATP by scintillation counting method"}, "[10]": {"target": "Mitogen-activated protein kinase kinase kinase kinase 5 (Homo sapiens) (UniProt Q9Y4K4)", "assay": "Inhibition of recombinant full-length human MAP4K5 assessed as residual activity at 10 uM using myelin basic protein as substrate measured after 40 mins in presence of [gamma33P]ATP by scintillation counting method"}, "[11]": {"system": "Serine/threonine-protein kinase D1 (Homo sapiens), Q15139 [UNDEFINED MUTATION]", "sequence (Q15139 whole entry, looked up, stated change not applied)": "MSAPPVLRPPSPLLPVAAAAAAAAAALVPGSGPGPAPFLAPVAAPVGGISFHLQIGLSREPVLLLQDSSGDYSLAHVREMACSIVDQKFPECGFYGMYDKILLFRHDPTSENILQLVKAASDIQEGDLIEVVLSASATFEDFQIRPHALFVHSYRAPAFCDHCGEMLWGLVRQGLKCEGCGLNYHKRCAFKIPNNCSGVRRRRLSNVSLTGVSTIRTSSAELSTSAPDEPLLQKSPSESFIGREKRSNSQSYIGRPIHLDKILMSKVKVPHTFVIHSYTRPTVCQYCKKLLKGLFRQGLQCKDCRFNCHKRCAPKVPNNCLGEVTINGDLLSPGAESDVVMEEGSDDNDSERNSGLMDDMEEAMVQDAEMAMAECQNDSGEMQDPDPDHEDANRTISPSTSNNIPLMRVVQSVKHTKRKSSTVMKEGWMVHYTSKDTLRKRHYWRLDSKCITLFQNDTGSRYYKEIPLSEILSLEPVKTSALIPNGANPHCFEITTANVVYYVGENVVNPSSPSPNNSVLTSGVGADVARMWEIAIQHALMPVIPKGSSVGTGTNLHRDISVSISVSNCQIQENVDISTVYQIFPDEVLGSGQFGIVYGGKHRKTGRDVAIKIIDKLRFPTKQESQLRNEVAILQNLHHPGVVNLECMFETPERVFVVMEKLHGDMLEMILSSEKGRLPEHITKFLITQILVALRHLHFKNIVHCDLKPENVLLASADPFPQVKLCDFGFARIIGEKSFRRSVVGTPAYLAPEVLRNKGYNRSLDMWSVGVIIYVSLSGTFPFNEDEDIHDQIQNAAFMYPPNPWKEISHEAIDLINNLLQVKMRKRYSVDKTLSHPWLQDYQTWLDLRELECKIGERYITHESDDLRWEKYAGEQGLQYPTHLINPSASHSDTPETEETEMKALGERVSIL", "assay": "Inhibition of recombinant full-length human PKCmu R135A mutant assessed as residual activity at 10 uM using KKLNRTLSVA as substrate measured after 40 mins in presence of [gamma33P]ATP by scintillation counting method"}, "[12]": {"system": "Ribosomal protein S6 kinase beta-1 (Homo sapiens), P23443 [T412E]", "assay": "Inhibition of recombinant human p70S6K T412E mutant (1 to 421 residues) assessed as residual activity at 10 uM using KKRNRTLTV as substrate measured after 40 mins in presence of [gamma33P]ATP by scintillation counting method"}, "[13]": {"target": "Death-associated protein kinase 3 (Homo sapiens) (UniProt O43293)", "assay": "Inhibition of human ZIPK (1 to 290 residues) using KKLNRTLSFAEPG as substrate measured after 40 mins in presence of [gamma33P]ATP by scintillation counting method", "parameters": "scale not given: the % may be the effect or the level left"}, "[14]": {"system": "Tyrosine-protein kinase ABL1 (Homo sapiens), P00519 [Q252H]", "assay": "Inhibition of recombinant human ABL Q252H mutant (27 to end residues) assessed as residual activity at 10 uM using EAIYAAPFAKKK as substrate measured after 40 mins in presence of [gamma33P]ATP by scintillation counting method"}, "[15]": {"target": "Serine/threonine-protein kinase 10 (Homo sapiens) (UniProt O94804)", "assay": "Inhibition of recombinant human LOK (1 to 348 residues) assessed as residual activity at 10 uM using RLGRDKYKTLRQIRQ as substrate measured after 40 mins in presence of [gamma33P]ATP by scintillation counting method"}, "[16]": {"target": "Eukaryotic translation initiation factor 2-alpha kinase 3 (Homo sapiens) (UniProt Q9NZJ5)", "assay": "Inhibition of recombinant human PEK (536 to end residues) assessed as residual activity at 10 uM using RSRSRSRSRSRSRSR as substrate measured after 40 mins in presence of [gamma33P]ATP by scintillation counting method"}, "[17]": {"target": "Ribosomal protein S6 kinase alpha-4 (Homo sapiens) (UniProt O75676)", "assay": "Inhibition of recombinant human MSK2 (2 to end residues) assessed as residual activity at 10 uM using GRPRTSSFAEGKK as substrate measured after 40 mins in presence of [gamma33P]ATP by scintillation counting method"}, "[18]": {"target": "PI3K p110 beta/p85 alpha (Homo sapiens) (UniProt P27986+P42338)", "sequence (P27986 2-724 limits assumed)": "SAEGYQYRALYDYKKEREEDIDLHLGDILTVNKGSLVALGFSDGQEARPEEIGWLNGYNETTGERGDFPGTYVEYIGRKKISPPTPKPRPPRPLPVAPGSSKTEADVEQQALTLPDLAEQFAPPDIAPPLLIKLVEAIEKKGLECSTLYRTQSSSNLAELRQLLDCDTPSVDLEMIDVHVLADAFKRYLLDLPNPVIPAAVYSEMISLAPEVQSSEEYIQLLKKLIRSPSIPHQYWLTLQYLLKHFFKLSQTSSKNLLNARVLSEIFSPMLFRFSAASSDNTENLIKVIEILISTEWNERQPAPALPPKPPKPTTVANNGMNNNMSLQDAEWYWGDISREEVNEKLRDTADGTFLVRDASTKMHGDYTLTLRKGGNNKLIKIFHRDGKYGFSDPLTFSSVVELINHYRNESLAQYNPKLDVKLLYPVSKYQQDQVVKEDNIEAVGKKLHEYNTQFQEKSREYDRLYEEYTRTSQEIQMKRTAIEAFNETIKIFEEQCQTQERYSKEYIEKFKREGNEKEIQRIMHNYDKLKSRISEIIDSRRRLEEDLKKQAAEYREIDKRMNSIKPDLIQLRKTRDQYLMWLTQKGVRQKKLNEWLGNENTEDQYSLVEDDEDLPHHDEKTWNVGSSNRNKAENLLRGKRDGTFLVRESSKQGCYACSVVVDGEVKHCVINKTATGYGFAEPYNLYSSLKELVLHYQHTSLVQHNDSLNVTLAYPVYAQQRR", "sequence (P42338 whole entry partner)": "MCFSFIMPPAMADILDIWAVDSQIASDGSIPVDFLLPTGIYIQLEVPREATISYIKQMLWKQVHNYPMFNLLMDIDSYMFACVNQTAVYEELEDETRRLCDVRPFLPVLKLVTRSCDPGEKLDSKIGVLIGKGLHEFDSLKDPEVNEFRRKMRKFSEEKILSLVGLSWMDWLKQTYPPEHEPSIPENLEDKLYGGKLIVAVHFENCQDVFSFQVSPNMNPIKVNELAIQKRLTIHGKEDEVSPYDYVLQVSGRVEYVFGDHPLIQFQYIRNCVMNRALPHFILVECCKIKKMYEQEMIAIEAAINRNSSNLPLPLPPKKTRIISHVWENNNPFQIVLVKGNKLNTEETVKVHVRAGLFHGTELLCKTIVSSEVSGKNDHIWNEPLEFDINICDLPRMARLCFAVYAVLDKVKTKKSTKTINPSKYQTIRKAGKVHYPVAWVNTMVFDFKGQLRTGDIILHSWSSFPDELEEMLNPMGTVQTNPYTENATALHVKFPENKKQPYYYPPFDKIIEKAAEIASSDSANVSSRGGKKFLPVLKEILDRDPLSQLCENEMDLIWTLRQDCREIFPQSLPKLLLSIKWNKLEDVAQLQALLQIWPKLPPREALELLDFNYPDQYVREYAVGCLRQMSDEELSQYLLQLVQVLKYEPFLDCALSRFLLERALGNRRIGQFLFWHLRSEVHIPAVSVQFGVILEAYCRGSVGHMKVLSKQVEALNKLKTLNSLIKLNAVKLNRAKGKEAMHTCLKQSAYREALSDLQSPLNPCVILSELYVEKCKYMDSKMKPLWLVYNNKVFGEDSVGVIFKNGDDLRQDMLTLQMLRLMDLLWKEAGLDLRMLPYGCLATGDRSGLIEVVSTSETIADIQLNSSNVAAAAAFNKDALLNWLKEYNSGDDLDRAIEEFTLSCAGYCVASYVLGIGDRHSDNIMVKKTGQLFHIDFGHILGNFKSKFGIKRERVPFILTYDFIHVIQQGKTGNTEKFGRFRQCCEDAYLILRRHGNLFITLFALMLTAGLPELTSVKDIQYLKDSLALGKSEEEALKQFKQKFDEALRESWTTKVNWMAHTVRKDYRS", "assay": "Inhibition of recombinant full-length human PI3K p110beta/p85alpha assessed as residual activity at 10 uM using phosphatidylinositol-4, 5-bisphosphate as substrate measured after 40 mins by fluorescence assay", "assay_type": "protein-complex assay"}, "[19]": {"target": "Calcium/calmodulin-dependent protein kinase kinase 1 (Homo sapiens) (UniProt Q8N5S9)", "assay": "Inhibition of recombinant full-length human CAMKk1 assessed as residual activity at 10 uM using calmodulin as substrate measured after 40 mins in presence of [gamma33P]ATP by scintillation counting method"}, "[20]": {"target": "Calcium/calmodulin-dependent protein kinase type 1D (Homo sapiens) (UniProt Q8IU85)", "assay": "Inhibition of recombinant full-length human CaMK1delta assessed as residual activity at 10 uM using calmodulin as substrate measured after 40 mins in presence of [gamma33P]ATP by scintillation counting method"}, "[21]": {"target": "Protein kinase C beta type (Homo sapiens) (UniProt P05771)", "assay": "Inhibition of recombinant human PKCbeta1 (2 to end residues) assessed as residual activity at 10 uM using histone H1 as substrate measured after 40 mins in presence of [gamma33P]ATP by scintillation counting method"}, "[22]": {"target": "MAP kinase-interacting serine/threonine-protein kinase 2 (Homo sapiens) (UniProt Q9HBH9)", "sequence (Q9HBH9 whole entry, looked up)": "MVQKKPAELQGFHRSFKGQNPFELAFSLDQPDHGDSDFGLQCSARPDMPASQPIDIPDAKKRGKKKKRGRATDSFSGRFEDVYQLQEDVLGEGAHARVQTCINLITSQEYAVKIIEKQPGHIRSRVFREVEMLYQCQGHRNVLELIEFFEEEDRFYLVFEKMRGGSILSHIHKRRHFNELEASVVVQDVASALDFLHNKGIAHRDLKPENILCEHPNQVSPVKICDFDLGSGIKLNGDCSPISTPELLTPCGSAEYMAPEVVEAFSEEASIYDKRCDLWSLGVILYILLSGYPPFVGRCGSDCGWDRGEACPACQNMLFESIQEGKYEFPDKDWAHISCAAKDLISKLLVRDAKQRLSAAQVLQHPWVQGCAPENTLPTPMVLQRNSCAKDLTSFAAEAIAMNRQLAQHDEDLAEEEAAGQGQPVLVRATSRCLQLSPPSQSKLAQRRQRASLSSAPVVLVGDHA", "assay": "Inhibition of recombinant full-length human Mnk2 assessed as residual activity at 10 uM using myelin basic protein as substrate measured after 40 mins in presence of [gamma33P]ATP by scintillation counting method"}}, "data": [{"smiles": "Cc1cc(C)c(CNc2nc(Cl)nc3c2ncn3C2CCCC2)c(=O)[nH]1", "values": [{"measurement": "Activity", "setting": "[1]", "value": 106, "unit": "%"}, {"measurement": "Activity", "setting": "SW-620", "value": 1.22, "unit": "%"}, {"measurement": "Activity", "setting": "[2]", "value": 98, "unit": "%"}, {"measurement": "Activity", "setting": "[3]", "value": 106, "unit": "%"}, {"measurement": "Activity", "setting": "[4]", "value": 110, "unit": "%"}, {"measurement": "Activity", "setting": "Homo sapiens [5]", "value": 114, "unit": "%"}, {"measurement": "Activity", "setting": "[6]", "value": 98, "unit": "%"}, {"measurement": "Activity", "setting": "Homo sapiens [7]", "value": 104, "unit": "%"}, {"measurement": "Activity", "setting": "[8]", "value": 98, "unit": "%"}, {"measurement": "Activity", "setting": "[9]", "value": 122, "unit": "%"}, {"measurement": "Activity", "setting": "[10]", "value": 130, "unit": "%"}, {"measurement": "Activity", "setting": "[11]", "value": 103, "unit": "%"}, {"measurement": "Activity", "setting": "[12]", "value": 105, "unit": "%"}, {"measurement": "Activity", "setting": "[13]", "value": 110, "unit": "%"}, {"measurement": "Activity", "setting": "[14]", "value": 106, "unit": "%"}, {"measurement": "Activity", "setting": "[15]", "value": 91.5, "unit": "%"}, {"measurement": "Activity", "setting": "[16]", "value": 116, "unit": "%"}, {"measurement": "Activity", "setting": "[17]", "value": 120, "unit": "%"}, {"measurement": "Activity", "setting": "[18]", "value": 104, "unit": "%"}, {"measurement": "Activity", "setting": "[19]", "value": 102, "unit": "%"}, {"measurement": "Activity", "setting": "[20]", "value": 107, "unit": "%"}, {"measurement": "Activity", "setting": "[21]", "value": 96, "unit": "%"}, {"measurement": "Activity", "setting": "[22]", "value": 88, "unit": "%"}]}]}
